In patent US5948814A, “Genistein for the treatment of cystic fibrosis” (priority 1998, dated 1999):

Tests used:
[1] = tested on: CFTR; experiment: In vivo phosphorylation of CFTR (32P) versus I- efflux, NIH/3T3-CFTR cells; type: cell-based; conditions: 50 μM genistein; 0-10 μM forskolin; all phosphorylation levels
Experimental: I^- efflux: I^- efflux was measured as described previously [Reenstra et al., 1996]. Briefly, cells were incubated for 30 minutes with 37° C. I^- efflux buffer [(in mM) 141 NaCl, 4 KCl, 1 KH2 PO4, 0.9 MgCl2, 1.7 CaCl2. 10 N-2hydroxyethylpiperazine-N'-2-ethanesulfonic acid (HEPES), 25 glucose pH 7.4] containing 5 μCi/ml carrier-free ^125 I^- (sodium salt). Extracellular ^125 I^- was removed by washing four times with efflux buffer, and the rate of loss of intracellular ^125 I^- was determined by replacing the bathing solution with 37° C. efflux buffer every 60 seconds for 12 minutes. Time-dependent rates of ^125 I^- efflux are calculated from R=ln(^125 I^-t1 /^125 I^-t2)/(t1-t2), where ^125 I^-t is the intracellular ^125 I^- at time t and t1 and t2 are successive time points. Dose-response curves were obtained from peak rates of 125I^- efflux by nonlinear least squares fitting to R=[Ro +Rmx ·([fsk]/K1/2)]/[1+([fsk]/K1/2)], where Ro and Rmx are the rates of ^125 I efflux at zero and infinite concentration of forskolin (fsk), and K1/2 is the concentration of agonist that gives a half-maximal change.

[2] = biological target: wt-CFTR (Homo sapiens, UniProt P13569); type: cell-based; set-up: expressed in transfected cells; conditions: 50 μM genistein on forskolin; HEK293; n=10
From the text: Transient expression of wt-CFTR in HEK293 cells: The pRBG4 vector containing wt-CFTR cDNA is a generous gift from Drs. Kevin Gunderson and Ron Kopito of Stanford University. HEK293 cells were transfected with the calcium phosphate method as described previously [Gunderson et al., 1994].
Downward deflections represent channel opening.

Chain of wt-CFTR (P13569 whole entry): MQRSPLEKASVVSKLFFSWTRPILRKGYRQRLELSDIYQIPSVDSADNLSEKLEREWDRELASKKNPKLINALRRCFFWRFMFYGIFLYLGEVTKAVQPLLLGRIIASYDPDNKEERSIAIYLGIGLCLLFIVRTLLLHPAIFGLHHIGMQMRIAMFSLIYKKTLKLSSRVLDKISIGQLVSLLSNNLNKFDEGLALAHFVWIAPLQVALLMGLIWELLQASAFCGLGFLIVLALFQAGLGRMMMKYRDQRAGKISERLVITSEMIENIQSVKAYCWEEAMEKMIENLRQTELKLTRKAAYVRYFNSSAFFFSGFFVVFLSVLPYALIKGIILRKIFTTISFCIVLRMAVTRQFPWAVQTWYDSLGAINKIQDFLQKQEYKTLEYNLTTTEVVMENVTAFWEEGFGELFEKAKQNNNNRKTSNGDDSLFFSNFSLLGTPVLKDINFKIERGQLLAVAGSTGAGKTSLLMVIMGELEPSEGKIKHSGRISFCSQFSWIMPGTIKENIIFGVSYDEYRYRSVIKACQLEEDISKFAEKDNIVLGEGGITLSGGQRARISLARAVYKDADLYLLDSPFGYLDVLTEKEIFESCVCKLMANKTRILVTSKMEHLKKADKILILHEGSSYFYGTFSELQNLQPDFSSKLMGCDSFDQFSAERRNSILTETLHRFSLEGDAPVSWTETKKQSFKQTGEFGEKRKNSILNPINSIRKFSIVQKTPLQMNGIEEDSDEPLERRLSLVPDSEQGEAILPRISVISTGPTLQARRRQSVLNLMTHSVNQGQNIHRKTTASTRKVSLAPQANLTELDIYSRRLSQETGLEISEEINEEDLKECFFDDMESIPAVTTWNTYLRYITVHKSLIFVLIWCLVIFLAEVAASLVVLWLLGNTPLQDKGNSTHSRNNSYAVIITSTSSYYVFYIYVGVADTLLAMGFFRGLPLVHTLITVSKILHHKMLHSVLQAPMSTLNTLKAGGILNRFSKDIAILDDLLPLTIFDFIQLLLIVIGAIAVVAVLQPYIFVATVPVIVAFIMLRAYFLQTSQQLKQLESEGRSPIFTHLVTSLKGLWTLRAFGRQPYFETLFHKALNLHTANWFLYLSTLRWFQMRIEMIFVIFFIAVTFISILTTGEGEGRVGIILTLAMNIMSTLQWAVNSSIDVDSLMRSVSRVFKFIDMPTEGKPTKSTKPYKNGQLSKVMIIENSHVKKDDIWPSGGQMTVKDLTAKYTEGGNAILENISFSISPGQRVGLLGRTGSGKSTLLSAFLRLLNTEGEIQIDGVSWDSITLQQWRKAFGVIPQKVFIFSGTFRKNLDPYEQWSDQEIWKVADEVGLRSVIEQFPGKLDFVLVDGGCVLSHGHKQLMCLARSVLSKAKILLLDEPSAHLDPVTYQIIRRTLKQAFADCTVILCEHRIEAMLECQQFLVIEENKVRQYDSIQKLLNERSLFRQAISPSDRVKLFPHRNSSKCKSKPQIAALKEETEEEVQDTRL

O=c1c(-c2ccc(O)cc2)coc2cc(O)cc(O)c12 [Genistein, 4',5,7-trihydroxyisoflavone]
channel activity at given CFTR phosphorylation level [1]: channel activity was greater in the presence of genistein
average increase in mean-current amplitude by genistein [2]: 3.1±0.7 fold
